The subject of one series is bacterial microbiota. The series is described as follows: Bacterial microbiota in stool of antifungal-treated mice (16S rDNA sequencing). Type of series: in vivo. As to conditions: 3 weeks in drinking water, stool DNA. The protocol: (§1) FIG. 24A-24D Antifungal treatment affects bacterial and fungal microbiota in mice. Mice were treated or not for 3 weeks with fluconazole or amphotericin B in their drinking water, DNA was isolated from stool, and fungal and bacterial communities were assessed by sequencing ITS1 and 16S rDNA regions respectively. […] D) Examples of bacteria (families) regulated upon antifungal treatment. * p<0.05; ** p<0.01; *** p<0.001; LDA scores from LEfSe analysis.
(§2) We will investigate the impact of antifungal therapy on the mucosa-associated microbiota in patients by examining samples collected before and after anti-fungal therapy. We will investigate the association between the mycobiota detected by high-throughput ITS (fungal) and 16S (bacterial) rDNA sequencing as well as targeted quantitative PCR in colonic washes, biopsies, and fecal samples. In preliminary studies in mice, we have observed that oral treatment with antifungal drugs (we have tried several) alters the fungal microbiota in fecal samples, which is, of course, not surprising (FIGS. 24A&C), but it also affects the bacterial microbiota (FIGS. 24B&D). The interrelationship between bacterial and fungal microbiota and the susceptibility of these communities to manipulation by antifungal drugs in mice is being further studied in other funded work. […]

Another series concerns fungal microbiota. Description: Fungal microbiota in stool of antifungal-treated mice (ITS1 sequencing). It is filed as in vivo. The following applies: 3 weeks in drinking water, stool DNA. The method, then:
as §1, §2

The subject of series [1] is acute colitis induced by DSS in wild type and Clec7a−/− mice. Description: DSS colitis in wild type and Dectin-1-deficient (Clec7a-/-) mice treated with fluconazole. Type of series: in vivo. As to conditions: DSS in drinking water. The text has this: DSS colitis in Dectin-1-deficient mice: The inventors examined whether defective immune recognition of fungi could have an impact on colitis and looked at the effects of inducing acute colitis in mice lacking Dectin-1 (Clec7a−/−). The inventors co-housed wild type and Clec7a−/− mice for two weeks before inducing acute colitis by administration of 3% DSS in the drinking water. […] Consistent with the histology, the inventors detected augmented production of IFN-γ and IL-17 in mesenteric lymph nodes (MLNs) and colons from Clec7a−/− mice (FIG. 12D, 12E). Furthermore, in colons of Clec7a−/− mice the inventors detected increased message for TNF-α, IL-23p19 and IL-17a, cytokines previously associated with intestinal inflammation (Not shown).

Another series relates to Malassezia. Description: Malassezia levels in stool of mice after oral fluconazole (rDNA sequencing). It is filed as in vivo. As to conditions: oral fluconazole for 1 week. The protocol: FIG. 22 depicts Efficacy of azole drug on colonic Malassezia in mice. Mice were treated with oral fluconazole for 1 week, and Malassezia levels were measured in the stool by rDNA sequencing.

The conditions of series [2]: in vivo; cited from earlier work.
The next series concerns Malassezia spp. The following applies: cited from earlier work.
The conditions of series [3]: from package insert; cited from earlier work.

The structures appear in SMILES notation.

As to `C[C@@H]1[C@H](O)[C@@H](C)/C=C/C=C/C=C/C=C/C=C/C=C/C=C/[C@H](O[C@@H]2O[C@H](C)[C@@H](O)[C@H](N)[C@@H]2O)C[C@@H]2O[C@](O)(C[C@@H](O)C[C@@H](O)[C@H](O)CC[C@@H](O)C[C@@H](O)CC(=O)O[C@H]1C)C[C@H](O)[C@H]2C(=O)O` [amphotericin B], the “effect on bacterial microbiota (16S sequencing, LEfSe)” value in the series on bacterial microbiota is given as “changes in bacterial microbiota”. In addition, the “effect on fungal microbiota (ITS1 sequencing)” value in the series with fungal microbiota was “alter the fungal community”.
With `OC(Cn1cncn1)(Cn1cncn1)c1ccc(F)cc1F` [fluconazole], the “effect on bacterial microbiota (16S sequencing, LEfSe)” value in the series on bacterial microbiota was “changes in bacterial microbiota”. For the same compound, in the series with fungal microbiota, the “effect on fungal microbiota (ITS1 sequencing)” value is listed as “alter the fungal community”. In addition, the effect on colitis entry in series [1] (Dectin-1 knockout (Clec7a−/−) animals) was “abrogated colitis”; in series [1] (wild type animals) it was “little or no effect”. Moreover, the “Malassezia levels in the stool” value in the series on Malassezia is “depletion of Malassezia from the stool”.
With `CC[C@@H]([C@H](C)O)n1ncn(-c2ccc(N3CCN(c4ccc(OC[C@@H]5CO[C@@](Cn6cncn6)(c6ccc(F)cc6F)C5)cc4)CC3)cc2)c1=O` [posaconazole], in series [2], the concentration in feces result is “high” and the first pass effect result is “low”. For the same compound, in the series on Malassezia spp., the “MIC against most Malassezia spp.” value is on record as “low”. Further, in series [3], the “common adverse events in clinical trials” value was “diarrhea, dyspepsia, nausea, fever, headache, coughing, and hypokalemia”.

The values above are taken from patent publication US20220260565A1, “METHODS OF TREATING AND DIAGNOSING INFLAMMATORY BOWEL DISEASE” (priority 2018, published 2022).
